# In patent US20130260376A1, “Prediction of and Monitoring Cancer Therapy Response Based on Gene Expression Profiling” (WHITEHEAD INSTITUTE FOR BIOMEDICAL RESEARCH, priority 2010, published 2013):
# System: HMLER breast cancer populations
# Assay: Microarray gene expression / Gene Set Enrichment Analysis of HMLER cells after drug treatment versus DMSO control
# Format: cell-based
# Conditions: relative to DMSO control, GSEA; for collective expression level of the genes in Table 1 (EMT-associated genes) and subsets thereof upon treatment: FIGS. 2 and 5; for collective expression level of the genes in Table 2 (non-EMT-associated genes) and subsets thereof upon treatment: FIGS. 3 and 4
# Procedure: The collective expression levels of the genes in Tables 1 and 2 after paclitaxel treatment were then determined. For these analyses, which are shown in FIGS. 2 and 3, collections of gene subsets of various sizes were chosen.
# Next, identical analyses as those described above were performed in the context of treatment with a different anti-cancer agent—salinomycin—that was previously identified as specifically killing invasive cancer stem cells. The opposite expression change (relative to paclitaxel) was observed upon treatment with salinomycin. […] As a consequence, measurement of the expression of the genes in Table 1 (or any appropriate subsets thereof identified according to the methods disclosed herein) would serve to identify tumors that would be responsive to a CSS agent (e.g., salinomycin treatment) when applied as a single agent.
Structure (SMILES),collective expression level of the genes in Table 1 (EMT-associated genes) and subsets thereof upon treatment,collective expression level of the genes in Table 2 (non-EMT-associated genes) and subsets thereof upon treatment
CC(=O)O[C@H]1C(=O)[C@@]2(C)[C@H]([C@H](OC(=O)c3ccccc3)[C@]3(O)C[C@H](OC(=O)[C@H](O)[C@@H](NC(=O)c4ccccc4)c4ccccc4)C(C)=C1C3(C)C)[C@]1(OC(C)=O)CO[C@@H]1C[C@@H]2O [paclitaxel],over-expressed,under-expressed
CC[C@@H](C(=O)[C@@H](C)[C@@H](O)[C@H](C)[C@@H]1O[C@@H]([C@@H](CC)C(=O)O)CC[C@@H]1C)[C@H]1O[C@]2(C=C[C@@H](O)[C@]3(CC[C@@](C)([C@H]4CC[C@](O)(CC)[C@H](C)O4)O3)O2)[C@H](C)C[C@@H]1C [salinomycin],under-expressed,over-expressed
